Source: patent publication US10286022B2, “Medicinal composition of extract of seed of emblica officinalis and method of preparing the same” (priority 2013, dated 2019)

What was measured:
[1] = system: Triton WR 1339 induced dyslipidemia in Albino rats (Sprague Dawley strain); assay: Hypolipidemic activity in different doses, Triton WR 1339 induced dyslipidemia model (Example 19); type: in vivo, rat
Procedure: Sixty male Albino rats (Sprague Dawley strain) weighing approximate 250-300 gm were selected for the study. The animals were kept in the animal house maintained at temp 24±2° C., 65% relative humidity and 12 hr light/dark cycle. The rats were acclimatized for two weeks and during this period they had access to standard pellet diet and water ad libitum. After two weeks of acclimatization, all the rats were fasted overnight before injecting Triton WR 1339 (Tyloxapol) and administration of test extracts/standard. The animals were divided into ten groups. Following treatment was given to overnight fasted rats: • Group I: Normal control (vehicle only). • Group II: Triton WR 1339 (300 mg/kg, intraperitoneal). • Group III: Triton WR 1339 (300 mg/kg, intraperitoneal) followed by amla seed extract prepare as per example 1 (10 mg/kg, per oral). • Group IV: Triton WR 1339 (300 mg/kg, intraperitoneal) followed by amla seed extract prepare as per example 1 (7.5 mg/kg, per oral). • Group V: Triton WR 1339 (300 mg/kg, intraperitoneal) followed by amla seed extract prepare as per example 1 (5 mg/kg, per oral). • Group VI: Triton WR 1339 (300 mg/kg, intraperitoneal) followed by amla seed extract prepare as per example 1 (2.5 mg/kg, per oral). • Group VII: Triton WR 1339 (300 mg/kg, intraperitoneal) followed by amla seed extract prepare as per example 1 (2 mg/kg, per oral). • Group VIII: Triton WR 1339 (300 mg/kg, intraperitoneal) followed by amla seed extract prepare as per example 1 (1 mg/kg, per oral). • Group IX: Triton WR 1339 (300 mg/kg, intraperitoneal) followed by amla seed extract prepare as per example 1 (0.5 mg/kg, per oral). • Group X: Triton WR 1339 (300 mg/kg, intraperitoneal) followed by atorvastatin (10 mg/kg. per oral).
(§1) The animals were deprived of food for next 24 hours but had free access to water ad libitum. After 24 hour of drug treatment 2 ml blood samples were collected from the retro orbital plexus. The blood was allowed to clot and then centrifuged at 3000 rpm for 10 min and the serum was carefully drawn and collected into separate tubes. The serum was analyzed for total cholesterol, triglycerides, high density lipoproteins (HDL), low density lipoproteins (LDL) and very low density lipoproteins (VLDL) levels using auto-analyzer.

[2] = system: Triton WR 1339 induced dyslipidemia in Albino rats (Sprague Dawley strain); assay: Hypolipidemic activity compared with other amla extracts, Triton WR 1339 model (Example 20); type: in vivo, rat
Procedure: Forty eight male Albino rats (Sprague Dawley strain) weighing approximate 250-300 gm were selected for the study. The animals were kept in the animal house maintained at temp 24±2° C., 65% relative humidity and 12 hr light/dark cycle. The rats were acclimatized for two weeks and during this period they had access to standard pellet diet and water ad libitum. After two weeks of acclimatization, all the rats were fasted overnight before injecting Triton WR 1339 (Tyloxapol) and administration of test extracts/standard. The animals were divided into eight groups. Following treatment was given to overnight fasted rats: • Group I: Normal control (vehicle only). • Group II: Triton WR 1339 (300 mg/kg, intraperitoneal). • Group III: Triton WR 1339 (300 mg/kg, intraperitoneal) followed by amla seed extract prepared as per example 1 (2.5 mg/kg, per oral). • Group IV: Triton WR 1339 (300 mg/kg, intraperitoneal) followed by amla extract prepared as per example 3 (40 mg/kg, per oral). • Group V: Triton WR 1339 (300 mg/kg, intraperitoneal) followed by amla extract prepared as per example 4 (40 mg/kg, per oral). • Group VI: Triton WR 1339 (300 mg/kg, intraperitoneal) followed by amla extract prepared as per example 5 (40 mg/kg, per oral). • Group VII: Triton WR 1339 (300 mg/kg, intraperitoneal) followed by amla extract prepared as per example 6 (40 mg/kg, per oral). • Group VIII: Triton WR 1339 (300 mg/kg, intraperitoneal) followed by atorvastatin (10 mg/kg, per oral).
as §1

[3] = 24 h after Triton i.p. + 10 mg/kg p.o.

## CC(C)c1c(C(=O)Nc2ccccc2)c(-c2ccccc2)c(-c2ccc(F)cc2)n1CC[C@@H](O)C[C@@H](O)CC(=O)O [Atorvastatin]
[1]; [3]
  HDL After: 39.83 mg/dL
  LDL After: 60.23 mg/dL
  TC After: 120.83 mg/dL
  TG After: 103.86 mg/dL
  VLDL After: 20.77 mg/dL
[1]; amla seed extract 0.5 to 10 mg/kg p.o., atorvastatin 10 mg/kg p.o.
  effect on cholesterol and triglyceride level: effective in lowering the cholesterol as well as triglyceride level
[1]; baseline, 10 mg/kg p.o. group
  HDL Before: 31.66 mg/dL
  LDL Before: 47.75 mg/dL
  TC Before: 87.43 mg/dL
  TG Before: 39.9 mg/dL
  VLDL Before: 7.98 mg/dL
[2]; [3]
  HDL After: 33.84 mg/dL
  LDL After: 55.00 mg/dL
  TC After: 132.58 mg/dL
  TG After: 218.66 mg/dL
  VLDL After: 43.73 mg/dL
[2]; baseline, 10 mg/kg p.o. group
  HDL Before: 35.11 mg/dL
  LDL Before: 52.43 mg/dL
  TC Before: 97.33 mg/dL
  TG Before: 48.99 mg/dL
  VLDL Before: 9.79 mg/dL
[2]; other amla extracts 40 mg/kg vs seed extract 2.5 mg/kg, atorvastatin 10 mg/kg p.o.
  effect on cholesterol and triglyceride level: effective in lowering the cholesterol as well as triglyceride levels
